In patent US8518980B2, “Treatment of Duchenne muscular dystrophy” (Summit Corporation PLC, priority 2006, dated 2013):
Structures can show the parent of a compound that is named as a salt.

Tested on: Utrophin A promoter linked to a luciferase reporter gene (H2K/mdx/Utro A reporter cell line)
Assay: Luciferase reporter assay (murine H2K cells)
Conditions: Mus musculus, H2K mdx

SMILES | activity at 10 µM [%]
CN(C)c1ccc(-c2nc3ccccc3[nH]2)cc1 [Example 498, 4-(1H-benzo[d]imidazol-2-yl)-N,N-dimethylaniline] | < 200
COCc1nc2ccccc2[nH]1 [Example 499, 2-(methoxymethyl)-1H-benzo[d]imidazole] | < 200
O=C(Nc1ccccc1-c1nc2ccccc2[nH]1)c1ccc(Cl)cc1Cl [Example 500, N-(2-(1H-benzo[d]imidazol-2-yl)phenyl)-2,4-dichlorobenzamide] | < 200
O=C(Cc1ccccc1)Nc1ccc(-c2nc3ccccc3[nH]2)cc1 [Example 501, N-(4-(1H-benzo[d]imidazol-2-yl)phenyl)-2-phenylacetamide] | < 200
CCc1ccc2oc(-c3cccc(N)c3)nc2c1 [Example 502, 3-(5-ethylbenzo[d]oxazol-2-yl)aniline] | 201 to 300
CC(=O)Nc1cccc(-c2nc3ccccc3[nH]2)c1 [Example 503, N-(3-(1H-benzo[d]imidazol-2-yl)phenyl)acetamide] | < 200
O=C(Nc1cccc(-c2nc3ccccc3[nH]2)c1)c1cccs1 [Example 504, N-(3-(1H-benzo[d]imidazol-2-yl)phenyl)thiophene-2-carboxamide] | < 200
Cc1ccc2oc(-c3ccc([N+](=O)[O-])cc3)nc2c1 [Example 505, 5-methyl-2-(4-nitrophenyl)benzo[d]oxazole] | 201 to 300
Cc1ccc2nc(-c3ccc(N)cc3)oc2c1 [Example 506, 4-(6-methylbenzo[d]oxazol-2-yl)aniline] | < 200
Fc1ccccc1-c1nc2ccccc2[nH]1 [Example 507, 2-(2-fluorophenyl)-1H-benzo[d]imidazole] | 201 to 300
O=[N+]([O-])c1ccc2[nH]c(-c3ccco3)nc2c1 [Example 508, 2-(furan-2-yl)-5-nitro-1H-benzo[d]imidazole] | < 200
CN(C)c1ccc(-c2nc3cc([N+](=O)[O-])ccc3[nH]2)cc1 [Example 509, N,N-dimethyl-4-(5-nitro-1H-benzo[d]imidazol-2-yl)aniline] | 201 to 300
Nc1ccc2[nH]c(-c3ccco3)nc2c1 [Example 510, 2-(furan-2-yl)-1H-benzo[d]imidazol-5-amine dihydrochloride] | < 200
O=C(Nc1ccccc1-c1nc2ccccc2[nH]1)c1ccc(S(=O)(=O)N2CCCC2)cc1 [Example 511, N-(2-(1H-benzo[d]imidazol-2-yl)phenyl)-4-(pyrrolidin-1-ylsulfonyl)benzamide] | < 200
COc1ccc(-c2nc3cc(N)ccc3o2)cc1 [Example 512, 2-(4-methoxyphenyl)benzo[d]oxazol-5-amine] | < 200
CC(=O)Nc1cccc(-c2nc3ccccc3s2)c1 [Example 513, N-(3-(benzo[d]thiazol-2-yl)phenyl)acetamide] | < 200
Clc1cccc(-c2nc3ccccc3[nH]2)c1 [Example 514, 2-(3-chlorophenyl)-1H-benzo[d]imidazole] | < 200
COc1ccc(-c2nc3cc(N)ccc3o2)cc1OC [Example 515, 2-(3,4-dimethoxyphenyl)benzo[d]oxazol-5-amine] | 201 to 300
O=S(=O)(c1ccc(-c2nc3ccccc3s2)cc1)N1CCCCC1 [Example 516, 2-(4-(piperidin-1-ylsulfonyl)phenyl)benzo[d]thiazole] | 201 to 300
CC(=O)Nc1ccc2oc(-c3ccc(Cl)cc3Cl)nc2c1 [Example 517, N-(2-(2,4-dichlorophenyl)benzo[d]oxazol-5-yl)acetamide] | 201 to 300
Nc1ccc(-c2nc3cc(Cl)cc(Cl)c3o2)cc1 [Example 518, 4-(5,7-dichlorobenzo[d]oxazol-2-yl)aniline] | 201 to 300

SMILES | activity at 10 µM [%]
COc1ccc(-c2nc3cc(NC(C)=O)ccc3o2)cc1Cl [Example 519, N-(2-(3-chloro-4-methoxyphenyl)benzo[d]oxazol-5-yl)acetamide] | 201 to 300
COc1ccc(-c2nc3cc([N+](=O)[O-])ccc3[nH]2)cc1OC [Example 520, 2-(3,4-dimethoxyphenyl)-5-nitro-1H-benzo[d]imidazole] | < 200
COc1ccc(-c2nc3ccccc3n2C)cc1OC [Example 521, 2-(3,4-dimethoxyphenyl)-1-methyl-1H-benzo[d]imidazole] | < 200
COc1ccccc1-c1nc2ccccc2s1 [Example 522, 2-(2-methoxyphenyl)benzo[d]thiazole] | < 200
O=[N+]([O-])c1cc(-c2nc3ccccc3s2)ccc1Cl [Example 523, 2-(4-chloro-3-nitrophenyl)benzo[d]thiazole] | < 200
O=[N+]([O-])c1ccc(Cl)c(-c2nc3ccccc3s2)c1 [Example 524, 2-(2-chloro-5-nitrophenyl)benzo[d]thiazole] | < 200
O=[N+]([O-])c1ccc2oc(-c3ccc(F)cc3)nc2c1 [Example 525, 2-(4-fluorophenyl)-5-nitrobenzo[d]oxazole] | < 200
Cc1ccc(-c2nc3cc(N)ccc3o2)cc1Cl [Example 526, 2-(3-chloro-4-methylphenyl)benzo[d]oxazol-5-amine] | 201 to 300
Cc1ccc(-c2nc3cc(N)ccc3o2)c(Cl)c1 [Example 527, 2-(2-chloro-4-methylphenyl)benzo[d]oxazol-5-amine] | 201 to 300
COc1ccc(OCc2nc3ccccc3n2C)cc1 [Example 528, 2-((4-methoxyphenoxy)methyl)-1-methyl-1H-benzo[d]imidazole] | 201 to 300
CC(=O)Nc1ccc(-c2nc3cc(C)cc(C)c3o2)cc1 [Example 529, N-(4-(5,7-dimethylbenzo[d]oxazol-2-yl)phenyl)acetamide] | 201 to 300
c1ccc(-c2nnc(SCc3nc4ccccc4[nH]3)o2)cc1 [Example 530, 2-((1H-benzo[d]imidazol-2-yl)methylthio)-5-phenyl-1,3,4-oxadiazole] | < 200
Cc1ccc(OCc2nc3ccccc3[nH]2)cc1 [Example 531, 2-(p-tolyloxymethyl)-1H-benzo[d]imidazole] | 201 to 300
Cc1ccc2[nH]c(-c3ccc(N)cc3)nc2c1 [Example 532, 4-(5-methyl-1H-benzo[d]imidazol-2-yl)aniline] | < 200
Cc1cccc(-c2nc3cc([N+](=O)[O-])ccc3o2)c1 [Example 533, 5-nitro-2-m-tolylbenzo[d]oxazole] | 201 to 300
CC(=O)Nc1ccc2[nH]c(-c3ccco3)nc2c1 [Example 534, N-(2-(furan-2-yl)-1H-benzo[d]imidazol-5-yl)acetamide] | < 200
COc1ccc(-c2nc3cc(N)ccc3[nH]2)cc1 [Example 535, 2-(4-methoxyphenyl)-1H-benzo[d]imidazol-5-amine] | 201 to 300
Cc1ccc(S(=O)(=O)Nc2ccc3[nH]c(-c4ccco4)nc3c2)cc1 [Example 536, N-(2-(furan-2-yl)-1H-benzo[d]imidazol-5-yl)-4-methylbenzenesulfonamide] | < 200
COc1ccc(-c2nc3cc([N+](=O)[O-])ccc3o2)cc1OC [Example 537, 2-(3,4-dimethoxyphenyl)-5-nitrobenzo[d]oxazole] | < 200
Cc1ccc2nc(-c3cccc(NC(=O)c4ccco4)c3)[nH]c2c1 [Example 538, N-(3-(6-methyl-1H-benzo[d]imidazol-2-yl)phenyl)furan-2-carboxamide] | < 200
